Molecules are shown by their SMILES. Some results are limits rather than exact numbers.

For assay [1], the target named is T1, GLP1R (Homo sapiens, UniProt P43220). The assay can be described thus: GLP1R cAMP assay, CHO cells stably expressing human GLP-1R. Format: cell-based. The note with it: CHO cells stably expressing GLP-1R, read-out: CHO cAMP stable EC50. On the procedure:
GLP-1R-mediated agonist activity was determined with a cell-based functional assay utilizing an HTRF (Homogeneous Time-Resolved Fluorescence) cAMP detection kit (cAMP Dynamic 2 Assay Kit; CisBio cat #62AM4PEC) that measures cAMP levels in the cell. The method is a competitive immunoassay between native cAMP produced by the cells and exogenous cAMP labeled with the dye d2. The tracer binding is visualized by a mAb anti-cAMP labeled with Cryptate. The specific signal (i.e., energy transfer) is inversely proportional to the concentration of cAMP in either standard or experimental sample.
Varying concentrations of each compound to be tested (in DMSO) were diluted in DMSO to obtain 200× compound working solution first and then 50 nl compounds were added to a white 384-well assay plate (Greiner 784075) with ECHO. The final DMSO concentration was 0.5%. The compound concentration range may be adjusted at any time.
Cells were removed from cryopreservation, re-suspended in 5 mL of Dulbecco's Phosphate Buffered Saline (DPBS-Sigma Cat # D8537) and centrifuged at 900 g for 5 min at 22° C. The cell pellet was then re-suspended in 1 mL of assay buffer [DPBS with 500 μM IBMX (Sigma #15879) and 0.1% BSA (Sigma # A1933). IBMX and BSA were freshly added on the day of assay]. A 10 μL sample of the cell suspension was counted on an Invitrogen Countess II to determine cell viability and cell count per mL. The remaining cell suspension was then adjusted with assay buffer to deliver 1000 viable cells per well using a Matrix Combi Multidrop reagent dispenser. 10 μL cell suspensions were added to each well of the assay plate which already contains compound. The plate was sealed and incubated at 37° C. with 5% CO2 for 30 minutes.
Following the 30 minute incubation, 5 μL of labeled d2 cAMP and 5 μL of anti-cAMP antibody (both diluted 1:20 in cell lysis buffer; as described in the manufacturer's assay protocol) were added to each well of the assay plate. The plates w ere then incubated at room temperature and after 60 minutes, changes in the HTRF signal were read with an Envision multi-label plate reader using excitation of 330 nm and emissions of 615 and 665 nm. Raw data were converted to nM cAMP by interpolation from a cAMP standard curve (as described in the manufacturer's assay protocol) and the percent effect was determined relative to a saturating concentration of the full agonist GLP-17-37 (10 nM) included on each plate. EC50 determinations were made from agonist dose-response curves analyzed with a curve fitting program using a 4-parameter logistic dose response equation. […]
(In general: Cyclic AMP is a second messenger, typically raised through Gs and lowered through Gi signalling.)

For assay [2], the target named is T1, GLP1R. The experiment in a line: GLP-1R/β-Arrestin recruitment assay (PathHunter eXpress GLP1R CHO-K1 β-Arrestin GPCR Assay). On the set-up: host or cells: PathHunter CHO-K1 GLP1R β-Arrestin cells. Format: cell-based. The note with it: averaged Bmax, percentage of control GLP-1 (7-37), highest concentration tested. An excerpt:
GLP-1R agonist activity with respect to β-arrestin recruitment can be determined with a cell-based functional assay using PathHuntcr eXpress GLP1R CHO-K1 β-Arrestin GPCR Assay kit (DiscovcrX Cat #93-0300E2CP0M).
The PathHunter β-Arrestin GPCR assay technology utilizes a β-galactosidase (β-gal) enzyme that is split into two fragments, the smaller Enzyme Donor (ED) and the larger Enzyme Acceptor (EA). These fragments can be fused to two proteins that may interact with each other, such as EA-β-Arrestin and ED-GLP-1R. The fusions can be stably expressed in a test cell line, such as the PathHunter CHO-K1 GLP1R β-Arrestin cells described below.
Independently, these fragment fusions have no β-gal activity; however, in solution or in a living cell, they can be brought together and complement to form an active β-gal enzyme due to the interaction between the fused proteins, thus generating a chemiluminescent signal in the presence of a suitable β-gal substrate.
In this experiment, PathHunter CHO-K1 GLP1R β-Arrestin cells from the assay kit were plated at a density of 1000 or 2000 cells/20 μl/well in a 384-well white/clear bottom plates (Greiner Cat #781098). Frozen cells were quickly thawed and 10 mL of cell plating medium (provided by the kit) was added to thawed cells. Cells were stored in a 37° C. incubator under 5% CO2 and kept for approximately 48 hours until ready to ran the assay.
Reference and test compounds were dissolved in 100% DMSO. 5× concentration of an agonist was prepared in serum free DMEM (Thermo Cat #11965). 5 μL of this solution was added to 20 μL cell medium in assay plate for a final top concentration of 10 μM. Plates were then incubated at 37° C. under 5% CO2 for 90 min.
Following 90 min incubation, detection reagents were made up by combining 1 part Galacton Star Substrate with 5 parts Emerald II™ Solution, and 19 parts of PathHunter Cell Assay Buffer, respectively. 12.5 μL detection reagent was added to each well. The plates were then incubated at room temperature in dark for 60 min. Plates were then read on Envision for 0.1 sec/well.
EC50 determinations were made from agonist dose-response curves analyzed with a curve fitting program using a 4-parameter logistic dose response equation.
Cells were plated at a density of 1000 or 2000 cells/20 μL/well. Frozen cells were quickly thawed and added to 10 mL of cell plating medium. Cells were stored in a 37° C. incubator under 5% CO2 and left for approximately 48 hours until ready to run the assay.
• 1) Reference agonist compound GLP1 (7-37): dissolved with DMSO to make 1 mM stock solutions, aliquoted and stored at −80° C. • 2) Test compounds (such as the compounds of the invention) came solubilized in 100% DMSO.
Prepare 10× concentration of an agonist in serum free DMEM, and add all solutions into the compound plate. 2.5 μL of this solution was added to 20 μL cell medium in assay plate for a final top concentration of 10 μM. Plates were incubated at 37° C. under 5% CO2 for 30 min. An additional 2.5 μL of Buffer was added to the entire plate for agonist mode and incubated at 37° C. for another 90 min.
Following 90 min incubation, detection reagents were made up as described. 12.5 μL was added to all wells. The plates were then incubated at room temperature in dark for 60 min. Plates were then read on Envision for 0.1 sec/well.
Data analysis: GraphPad Prism 6 was used for establishment of progression curve. EC50S or IC50s were determined by 4-parameter logistic dose response equation.

T1 sequence (P43220 24-463): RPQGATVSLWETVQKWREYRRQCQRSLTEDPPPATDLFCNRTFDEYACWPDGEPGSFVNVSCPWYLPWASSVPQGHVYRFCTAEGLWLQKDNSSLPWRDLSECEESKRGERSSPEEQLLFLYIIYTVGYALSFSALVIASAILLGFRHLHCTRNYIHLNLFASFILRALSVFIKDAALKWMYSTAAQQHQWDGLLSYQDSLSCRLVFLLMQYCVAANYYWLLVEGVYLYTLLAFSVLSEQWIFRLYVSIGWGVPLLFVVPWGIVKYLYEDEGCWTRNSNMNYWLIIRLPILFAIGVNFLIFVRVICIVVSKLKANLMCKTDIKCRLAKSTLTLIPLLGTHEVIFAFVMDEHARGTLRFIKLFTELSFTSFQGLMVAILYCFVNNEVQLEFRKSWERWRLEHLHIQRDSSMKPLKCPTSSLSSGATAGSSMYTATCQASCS

As for `N#Cc1ccc(COc2cncc(C3CCN(Cc4nc5ccc(C(=O)O)cc5n4C[C@@H]4CCO4)CC3)n2)c(F)c1` [Compound 22, (S)-2-((4-(6-(4-cyano-2-fluorobenzyloxy)pyrazin-2-yl)piperidin-1-yl)methyl)-1-(oxetan-2-ylmethyl)-1 h-benzo[d]imidazole-6-carboxylic acid], the EC50 at GLP1R [1] was no more than 1000 nM. For the same molecule, on GLP1R [2], the “Bmax (POC)” value is on record as 10.9 ± 0.0317 POC.

With `O=C(O)c1ccc2nc(CN3CC=C(c4ccnc(OCc5ccc(Cl)cc5F)n4)CC3)n(C[C@@H]3CCO3)c2c1` [Compound 35, (S)-2-((4-(2-((4-chloro-2-fluorobenzyl)oxy)pyrimidin-4-yl)-3,6-dihydropyridin-1(2H)-yl)methyl)-1-(oxetan-2-ylmethyl)-1H-benzo[d]imidazole-6-carboxylic add], the EC50 at GLP1R [1] is no more than 150 nM. Also, the “Bmax (POC)” value on GLP1R [2] is on record as 19.9 ± 4.44 POC.

For `O=C(O)c1ccc2nc(CN3CC=C(c4ccc(F)c(OCc5ccc(Cl)cc5F)c4)CC3)n(C[C@@H]3CCO3)c2n1` [Compound 236, (S)-2-((4-(3-((4-chloro-2-fluorobenzyl)oxy)-4-fluorophenyl)-5,6-dihydropyridin-1(2H)-yl)methyl)-3-(oxetan-2-ylmethyl)-3H-imidazo[4,5-b]pyridine-5-carboxylic acid], the EC50 on GLP1R [1] was no more than 150 nM. The “Bmax (POC)” value on GLP1R [2] worked out at 40.3 ± 4.10 POC.

On to `O=C(O)c1ccc2nc(CN3CCC(c4cccc(OCc5ccc(Cl)cc5F)c4)CC3)n(C[C@@H]3CCO3)c2c1` [Compound 239, (S)-2-((4-(3-((4-chloro-2-fluorobenzyl)oxy)phenyl)piperidin-1-yl)methyl)-1-(oxetan-2-ylmethyl)-1H-benzo[d]imidazole-6-carboxylic acid], for which, on GLP1R [1], the half-maximal effective concentration (EC50) is no more than 150 nM. Further, the “Bmax (POC)” value on GLP1R [2] worked out at 25.6 ± 5.31 POC.

`N#Cc1ccc(COc2nc(C3=CCN(Cc4nc5ccc(C(=O)O)cc5n4C[C@@H]4CCO4)CC3)ccc2F)c(F)c1` [Compound 222, (S)-2-((6-((4-cyano-2-fluorobenzyl)oxy)-5-fluoro-3′,6′-dihydro-[2,4′-bipyridin]-1′(2′H)-yl)methyl)-1-(oxetan-2-ylmethyl)-1H-benzo[d]imidazole-6-carboxylic acid]: at GLP1R [1], the EC50 is no more than 15 nM. Besides, at GLP1R [2], the “Bmax (POC)” value turned out to be 31.1 ± 4.67 POC.

For `O=C(O)c1ccc2nc(CN3CCC(c4ccnc(OCc5ccc(Cl)cc5F)n4)CC3)n(C[C@@H]3CCO3)c2c1` [Compound 18, (S)-2-((4-(2-((4-chloro-2-fluorobenzyl)oxy)pyrimidin-4-yl)piperidin-1-yl)methyl)-1-(oxetan-2-ylmethyl)-1H-benzo[d]imidazole-6-carboxylic acid], the EC50 at GLP1R [1] is no more than 150 nM. Besides, the “Bmax (POC)” value at GLP1R [2] was found to be 26.2 ± 1.55 POC.

What is called EC50 is the concentration needed to bring the measured effect to its halfway point.
